From patent US12275729B2 (Merck Sharp & Dohme LLC, priority 2017, dated 2025)

Target: IDO1 (Homo sapiens, UniProt P14902)
Test: IDO1 Cellular Assay in HeLa Cells Stimulated with IFNγ
Format: cell-based
Conditions: about 48 hours, read-out: Hela IC50
Procedure: Biological Assays IDO1 Cellular Assay in HeLa Cells Stimulated with IFNγ
HeLa cells were cultured in complete HeLa culture medium (90% EMEM, 10% heat-inactivated fetal bovine serum) and expanded to about 1×10^9 cells. The cells were then collected and frozen down at 1×10^7 cells/vial in 1 mL frozen medium (90% complete HeLa culture medium, 10% DMSO).
Compounds to be tested were serially diluted in ten 3-fold steps in DMSO starting from 10 mM DMSO stocks in Echo low volume plate(s).
Frozen HeLa cells were thawed and transferred into HeLa assay medium (99% complete HeLa culture medium, 1% Pen/Strep) with 20 mL medium/vial of cells. The cells were spun down at 250 g in a table top centrifuge for 5 min and suspended in same volume of HeLa assay medium. The cells were then counted and adjusted to a density of 2×10^5 cells/mL in HeLa assay medium. Sterile L-tryptophan were added to the cells with final concentration of 300 uM L-tryptophan. A small aliquot (2 mL/plate) of HeLa cells were set aside and were not treated with IFNγ, to serve as the Max-E control.
HeLa cells with and without IFNγ were dispensed to the respective wells of 384-well assay plates containing the compounds. The plates were incubated for about 48 hours at a 37° C., 5% CO2 incubator. Afterwards, 12 μL of 0.5 M methyl isonipecotate in dimethyl sulfoxide were added into each well and the plates were sealed and incubated at 37° C. without CO2 overnight. The plates were centrifuged for 1 min at 200×g. The resulting fluorescence was measured in a Spectramax plate reader (Molecular Devices) with a 400 nm excitation filter and a 510 nm emission filter.
Potencies were calculated by […] least squares fit to the four parameter logistic IC50 equation.

Chain of IDO1 (P14902 whole entry): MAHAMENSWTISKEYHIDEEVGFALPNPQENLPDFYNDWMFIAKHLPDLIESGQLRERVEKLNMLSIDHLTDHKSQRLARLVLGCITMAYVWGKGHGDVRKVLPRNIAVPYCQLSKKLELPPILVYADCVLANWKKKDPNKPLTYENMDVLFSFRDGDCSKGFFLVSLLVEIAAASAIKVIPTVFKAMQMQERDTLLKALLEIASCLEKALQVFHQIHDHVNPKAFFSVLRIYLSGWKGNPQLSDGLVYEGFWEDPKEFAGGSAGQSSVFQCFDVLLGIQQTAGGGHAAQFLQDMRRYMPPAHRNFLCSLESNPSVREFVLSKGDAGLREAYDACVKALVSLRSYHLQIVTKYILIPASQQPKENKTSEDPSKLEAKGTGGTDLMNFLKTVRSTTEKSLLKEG

Row | IC50 [µM] | Structure (SMILES)
1 | 0.356 | C[C@@H](NC(=O)c1ccc(F)cc1)c1ccc2c(n1)CCCN2C(=O)[C@H]1CCOC1 [Example 131, 4-fluoro-N-((R)-1-(5-((S)-tetrahydrofuran-3-carbonyl)-5,6,7,8-tetrahydro-1,5-naphthyridin-2-yl)ethyl)benzamide]
2 | 2.65 | CC(NC(=O)c1ccc(F)cc1)c1ccc2c(n1)C(F)(F)CCN2C(=O)C1CC1 (single isomer, unassigned) [Example 194, N-(1-(5-(cyclopropanecarbonyl)-8,8-difluoro-5,6,7,8-tetrahydro-1,5-naphthyridin-2-yl)ethyl)-4-fluorobenzamide]
3 | 0.0162 | Cc1n[nH]c(C(=O)N2CCCc3cc(C4(C(=O)Nc5ccc(F)cc5)CCC4)ccc32)n1 [Example 109, N-(4-fluorophenyl)-1-[1-(3-methyl-1H-1,2,4-triazole-5-carbonyl)-1,2,3,4-tetrahydroquinolin-6-yl]cyclobutane-1-carboxamide]
4 | 0.298 | Cc1cc(C(=O)NCc2ccc3c(c2)CCCN3C(=O)CC(C)C)ccc1Cl [Example 4, 4-chloro-3-methyl-N-{[1-(3-methylbutanoyl)-1,2,3,4-tetrahydroquinolin-6-yl]methyl}benzamide]
5 | 0.0161 | O=C(NC1(c2ccc3c(n2)CCCN3C(=O)C2CCOCC2)CC1)c1ccc(F)cc1 [Example 172, 4-fluoro-N-{1-[5-(oxane-4-carbonyl)-5,6,7,8-tetrahydro-1,5-naphthyridin-2-yl]cyclopropyl}benzamide]
6 | 0.0019 | O=C([C@H]1CCCO1)N1CCCc2nc(C3(C(=O)Nc4ccc(F)cc4)CCC3)ccc21 [Example 180, N-(4-fluorophenyl)-1-{5-[(2R)-oxolane-2-carbonyl]-5,6,7,8-tetrahydro-1,5-naphthyiridin-2-yl}cyclobutane-1-carboxamide]
7 | 4.15 | CC(C(=O)Nc1ccc(F)cc1)c1ccc2c(c1)CCCN2C1CCCCC1 (centres unmarked) [Example 228, 2-(1-cyclohexyl-1,2,3,4-tetrahydroquinolin-6-yl)-N-(4-fluorophenyl)propanamide]
8 | 0.0516 | C[C@H](C(=O)Nc1ccc(F)cc1)c1ccc2c(c1)CCCN2C(=O)[C@@H]1CCOC1 [Example 78, (2S)-N-(4-fluorophenyl)-2-{1-[(3R)-oxolane-3-carbonyl]-1,2,3,4-tetrahydroquinolin-6-yl}propanamide]
9 | 0.0168 | Cc1nnc(C(=O)N2CCCc3cc(C(C)C(=O)Nc4ccc(F)cc4)ccc32)o1 (centres unmarked) [Example 44]
10 | 0.0341 | CS(=O)(=O)N1CCCc2cc(C3(C(=O)Nc4ccc(F)cn4)CCC3)ccc21 [Example 123, N-(5-fluoropyridin-2-yl)-1-[1-(methylsulfonyl)-1,2,3,4-tetrahydroquinolin-6-yl]cyclobutane-1-carboxamide]
11 | 0.0015 | Cc1ccnc(C(=O)N2CCCc3cc(C4(C(=O)Nc5ccc(F)cn5)CCC4)ccc32)n1 [Example 118, N-(5-fluoropyridin-2-yl)-1-[1-(4-methylpyrimidine-2-carbonyl)-1,2,3,4-tetrahydroquinolin-6-yl]cyclobutane-1-carboxamide]
12 | 0.00074 | Cc1nccc(N2CCCc3nc(C4(NC(=O)c5ccc(Cl)cc5)CC4)ccc32)n1 [Example 299, 4-chloro-N-(1-(5-(2-methylpyrimidin-4-yl)-5,6,7,8-tetrahydro-1,5-naphthyridin-2-yl)cyclopropyl)benzamide]
13 | 1.54 | CC(NC(=O)c1ccc(F)cc1)c1ccc2c(n1)CCCN2C(=O)C1COC1 (centres unmarked) [Example 142, 4-fluoro-N-{1-[5-(oxetane-3-carbonyl)-5,6,7,8-tetrahydro-1,5-naphthyridin-2-yl]ethyl}benzamide]
14 | 0.00149 | O=C(Nc1ccc(F)cc1)C1(c2ccc3c(n2)CCCN3c2ccnc(C(F)(F)F)n2)CCC1 [Example 407, N-(4-fluorophenyl)-1-(5-(2-(trifluoromethyl)pyrimidin-4-yl)-5,6,7,8-tetrahydro-1,5-naphthyridin-2-yl)cyclobutane-1-carboxamide]
15 | 0.0181 | CC(NC(=O)c1ccc(F)cc1)c1ccc2c(n1)CCCN2C(=O)c1ccn(C2CC2)n1 (stereo in doubt) [Example 144, N-{(1R)-1-[5-(1-cyclopropyl-1H-pyrazole-3-carbonyl)-5,6,7,8-tetrahydro-1,5-naphthyridin-2-yl]ethyl}-4-fluorobenzamide]
16 | 0.273 | COC(C(=O)Nc1ccc(F)cn1)c1ccc2c(c1)CCCN2C(=O)C1CC1 (centres unmarked) [Example 155, 2-(1-(cyclopropanecarbonyl)-1,2,3,4-tetrahydroquinolin-6-yl)-N-(5-fluoropyridin-2-yl)-2-methoxyacetamide]

Row | IC50 [µM] | Structure (SMILES)
17 | 0.0035 | CC(NC(=O)c1ccc(Cl)cc1)c1ccc2c(n1)OCCN2C(=O)c1ccccc1 (racemic) [Example 253, N-(1-(1-benzoyl-2,3-dihydro-1H-pyrido[2,3-b][1,4]oxazin-6-yl)ethyl)-4-chlorobenzamide]
18 | 0.0444 | Cc1nc(C(=O)N2CCCc3cc([C@@H](C)C(=O)Nc4ccc(F)cn4)ccc32)no1 [Example 64, (2R)-N-(5-fluoropyridin-2-yl)-2-[1-(5-methyl-1,2,4-oxadiazole-3-carbonyl)-1,2,3,4-tetrahydroquinolin-6-yl]propanamide]
19 | 0.0876 | CC(C)(C)OC(=O)N1CCCc2cc(C3(C(=O)NC45CC(C4)C5)CCC3)ccc21 [Example 119, tert-butyl 6-{1-[(bicyclo[1.1.1]pentan-1-yl)carbamoyl]cyclobutyl}-3,4-dihydroquinoline-1(2H)-carboxylate]
20 | 9.02 | CC(=O)N1CC(C(=O)N2CCCc3cc([C@H](C)C(=O)Nc4ccc(F)cc4)ccc32)C1 [Example 69, (2S)-2-[1-(1-acetylazetidine-3-carbonyl)-1,2,3,4-tetrahydroquinolin-6-yl]-N-(4-fluorophenyl)propanamide]
21 | 0.296 | C[C@H](C(=O)Nc1ccc(F)cc1)c1ccc2c(c1)CCCN2C(=O)C[C@@H](C)O [Example 68, (2S)-N-(4-fluorophenyl)-2-{1-[(3R)-3-hydroxybulanoyl]-1,2,3,4-tetrahydroquinolin-6-yl}propanamide]
22 | 0.123 | C[C@@H](C(=O)Nc1ccc(F)cn1)c1ccc2c(c1)CCCN2C(=O)C1CC1 (single isomer, unassigned) [Example 60]
23 | 0.0861 | O=C(c1cnn(CC(F)F)c1)N1CCCc2cc(C3(C(=O)Nc4ccc(F)cc4)CCC3)ccc21 [Example 114, 1-{1-[1-(2,2-difluoroethyl)-1H-pyrazole-4-carbonyl]-1,2,3,4-tetrahydroquinolin-6-yl}-N-(4-fluorophenyl)cyclobutane-1-carboxamide]
24 | 0.0618 | CO[C@@H](C)C(=O)N1CCCc2cc([C@H](C)C(=O)Nc3ccc(F)cc3)ccc21 (single isomer, unassigned) [Example 75]
25 | 0.0072 | CC(C(=O)Nc1ccc(F)cc1)c1ccc2c(c1)CCCN2C(=O)C1(C(F)(F)F)CC1 (centres unmarked) [Example 66, N-(4-fluorophenyl)-2-{1-[1-(trifluoromethyl)cyclopropane-1-carbonyl]-1,2,3,4-tetrahydroquinolin-6-yl}propanamide]
26 | 0.435 | CC(C)n1cc(C(=O)NCc2ccc3c(c2)CCCN3C(=O)c2cccc(Cl)c2)cn1 [Example 19, N-{[1-(3-chlorobenzene-1-carbonyl)-1,2,3,4-tetrahydroquinolin-6-yl]methyl}-1-(propan-2-yl)-1H-pyrazole-4-carboxamide]
27 | 0.0347 | C[C@H](C(=O)Nc1ccc(F)cc1)c1ccc2c(c1)CCCN2C(=O)C1CC(F)(F)C1 [Example 79, (2S)-2-[1-(3,3-difluorocyclobutane-1-carbonyl)-1,2,3,4-tetrahydroquinolin-6-yl]-N-(4-fluorophenyl)propanamide]
28 | 0.248 | O=C(c1nnc(C(F)(F)F)[nH]1)N1CCCc2cc(C3(C(=O)Nc4ccc(F)cc4)CCC3)ccc21 [Example 110, N-(4-fluorophenyl)-1-{1-[5-(trifluoromethyl)-4H-1,2,4-triazole-3-carbonyl]-1,2,3,4-tetrahydroquinolin-6-yl}cyclobutane-1-carboxamide]
29 | 0.0671 | O=C(Nc1ccc(F)cn1)C1(c2ccc3c(c2)CCCN3S(=O)(=O)N2CCCC2)CCC1 [Example 122, N-(5-fluoropyridin-2-yl)-1-{1-[(pyrrolidin-1-yl)sulfonyl]-1,2,3,4-tetrahydroquinolin-6-yl}cyclobutane-1-carboxamide]
30 | 0.0218 | CC(C(=O)Nc1ccc(F)cc1)c1ccc2c(n1)CCCN2C(=O)[C@@H]1CCCO1 (single isomer, unassigned) [Example 163]
31 | 0.00174 | O=C(Nc1ccc(Cl)cc1)C1(c2ccc3c(n2)CCCN3c2cccc(C(F)(F)F)n2)CCC1 [Example 409, N-(4-chlorophenyl)-1-(5-(6-(trifluoromethyl)pyridin-2-yl)-5,6,7,8-tetrahydro-1,5-naphthyridin-2-yl)cyclobutane-1-carboxamide]

Same assay, conditions: read-out: Hela IC50

Row | IC50 [µM] | Structure (SMILES)
32 | 0.00401 | COc1cccc(N2CCCc3nc(C(C)NC(=O)c4ccc(Cl)cc4)ccc32)n1 (centres unmarked) [Example 352, 4-chloro-N-(1-(5-(6-methoxypyridin-2-yl)-5,6,7,8-tetrahydro-1,5-naphthyridin-2-yl)ethyl)benzamide]
